Values of other authors as cited in patent US20210015755A1, “SECNIDAZOLE SOFT GELATIN CAPSULE AND METHODS AND USES THEREOF” (Lupin Inc., priority 2019, published 2021).

excreted intact in the urine (in vivo)	absorption after oral administration (oral administration)	Compound	effectiveness in the treatment of bacterial vaginosis (bacterial vaginosis; 500 mg ovule formulation versus 37.5 mg metronidazole gel (Sanchez et al.))	cure rates (bacterial vaginosis; intravaginal 750 mg ovule formulation versus 500 mg ovule composition (Aguin et al.))
50%	rapidly and completely absorbed	Cc1ncc([N+](=O)[O-])n1CC(C)O (stereo not shown) [Secnidazole, 1-(2-hydroxypropyl)-2-methyl-5-nitromidazole]	–	–
–	–	Cc1ncc([N+](=O)[O-])n1CCO [metronidazole]	significantly more effective	higher cure rates
